The values below come from BindingDB's records for doi:10.1016/j.bmcl.2008.06.042 (Ariad Pharmaceuticals, 2008).

The target in this assay is FLT3 receptor tyrosine kinase (Homo sapiens) (UniProt P36888). As to the kind of experiment: Inhibition of Flt3.
FLT3 receptor tyrosine kinase (Homo sapiens), sequence (P36888 whole entry, looked up): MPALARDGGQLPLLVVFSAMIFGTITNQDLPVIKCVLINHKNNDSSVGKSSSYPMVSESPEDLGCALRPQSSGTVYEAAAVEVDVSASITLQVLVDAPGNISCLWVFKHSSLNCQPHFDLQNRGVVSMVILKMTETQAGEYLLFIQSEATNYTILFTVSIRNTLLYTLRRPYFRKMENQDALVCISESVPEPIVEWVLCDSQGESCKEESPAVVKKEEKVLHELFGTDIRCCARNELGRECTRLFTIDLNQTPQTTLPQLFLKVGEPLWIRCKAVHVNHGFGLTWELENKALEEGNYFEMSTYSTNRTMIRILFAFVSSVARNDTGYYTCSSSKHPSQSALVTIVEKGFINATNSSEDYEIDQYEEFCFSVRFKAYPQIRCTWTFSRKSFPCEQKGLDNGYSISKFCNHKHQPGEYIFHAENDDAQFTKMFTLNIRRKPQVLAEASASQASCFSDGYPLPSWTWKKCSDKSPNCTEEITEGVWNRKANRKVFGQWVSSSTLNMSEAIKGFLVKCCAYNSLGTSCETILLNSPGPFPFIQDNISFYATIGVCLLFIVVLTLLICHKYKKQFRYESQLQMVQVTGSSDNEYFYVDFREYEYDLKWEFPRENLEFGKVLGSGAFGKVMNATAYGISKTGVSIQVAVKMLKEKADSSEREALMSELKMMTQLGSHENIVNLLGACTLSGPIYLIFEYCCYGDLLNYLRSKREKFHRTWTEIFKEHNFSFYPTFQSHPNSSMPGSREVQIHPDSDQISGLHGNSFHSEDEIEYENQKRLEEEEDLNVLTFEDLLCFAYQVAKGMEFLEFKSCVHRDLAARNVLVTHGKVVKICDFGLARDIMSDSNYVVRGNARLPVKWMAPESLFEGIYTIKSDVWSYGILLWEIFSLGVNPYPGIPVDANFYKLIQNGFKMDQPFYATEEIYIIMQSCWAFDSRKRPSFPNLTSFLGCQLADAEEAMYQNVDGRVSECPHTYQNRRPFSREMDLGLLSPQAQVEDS

On to `Cc1cccc(C)c1/C=C/n1cnc2c(Nc3ccc(P(C)(C)=O)cc3)ncnc21` [AP24149], for which the IC50 was > 1 µM.

One may read the IC50 as the concentration needed to halve the response being measured.
